According to ChEMBL document CHEMBL5465560, “Selectivity Literature for EUbOPEN Chemogenomic Library” (2024):
Each block holds one molecule with its values, some of them ahead of it.

How the values were obtained:
[1] = molecular target: Vascular endothelial growth factor receptor 3 (Homo sapiens, UniProt P35916); experiment: Selectivity interaction (KinomeScan (DiscoverX)) EUB0000607a FLT4; conditions: at 10 µM
[2] = molecular target: Serine/threonine-protein kinase PAK 6 (Homo sapiens) (UniProt Q9NQU5); experiment: Selectivity interaction (KinomeScan (DiscoverX)) EUB0000607a PAK6; conditions: at 10 µM
[3] = molecular target: Interferon-induced, double-stranded RNA-activated protein kinase (Homo sapiens) (UniProt P19525); experiment: Selectivity interaction (ActivX KiNativ screen (kinase selectivity in THP-1 cell lysates)) EUB0000639a EIF2AK2; format: subcellular; conditions: lysate, at 1 µM
[4] = molecular target: Ribosomal protein S6 kinase alpha-2 (Homo sapiens) (UniProt Q15349); experiment: Selectivity interaction (ActivX KiNativ screen (kinase selectivity in THP-1 cell lysates)) EUB0000639a RPS6KA2; format: subcellular; conditions: lysate, at 0.04 µM
Sequence of Ribosomal protein S6 kinase alpha-2 (Homo sapiens) (Q15349 whole entry): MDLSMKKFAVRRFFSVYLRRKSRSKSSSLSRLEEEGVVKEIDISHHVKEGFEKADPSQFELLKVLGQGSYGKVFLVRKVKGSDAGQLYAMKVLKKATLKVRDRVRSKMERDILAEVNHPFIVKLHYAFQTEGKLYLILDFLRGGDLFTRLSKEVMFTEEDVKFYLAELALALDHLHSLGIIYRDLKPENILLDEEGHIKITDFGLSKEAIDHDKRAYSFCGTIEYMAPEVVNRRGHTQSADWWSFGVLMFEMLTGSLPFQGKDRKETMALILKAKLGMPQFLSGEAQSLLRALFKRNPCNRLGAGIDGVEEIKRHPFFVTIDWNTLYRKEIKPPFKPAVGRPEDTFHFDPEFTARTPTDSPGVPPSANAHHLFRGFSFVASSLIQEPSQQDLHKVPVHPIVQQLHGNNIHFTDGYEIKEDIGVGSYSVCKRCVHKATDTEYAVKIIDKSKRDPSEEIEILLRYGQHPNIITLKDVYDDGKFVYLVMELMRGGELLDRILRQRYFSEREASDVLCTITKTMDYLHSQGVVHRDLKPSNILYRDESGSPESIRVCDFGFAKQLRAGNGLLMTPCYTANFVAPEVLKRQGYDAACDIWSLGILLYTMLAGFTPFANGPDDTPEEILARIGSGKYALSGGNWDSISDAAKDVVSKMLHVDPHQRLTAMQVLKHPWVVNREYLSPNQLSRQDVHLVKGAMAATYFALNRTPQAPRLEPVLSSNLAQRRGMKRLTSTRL

[5] = molecular target: Cyclin-dependent kinase 13 (Homo sapiens, UniProt Q14004); experiment: Selectivity interaction (ActivX KiNativ screen (kinase selectivity in THP-1 cell lysates)) EUB0000639a CDK13; format: subcellular; conditions: lysate
Sequence of Cyclin-dependent kinase 13 (Q14004 whole entry, looked up): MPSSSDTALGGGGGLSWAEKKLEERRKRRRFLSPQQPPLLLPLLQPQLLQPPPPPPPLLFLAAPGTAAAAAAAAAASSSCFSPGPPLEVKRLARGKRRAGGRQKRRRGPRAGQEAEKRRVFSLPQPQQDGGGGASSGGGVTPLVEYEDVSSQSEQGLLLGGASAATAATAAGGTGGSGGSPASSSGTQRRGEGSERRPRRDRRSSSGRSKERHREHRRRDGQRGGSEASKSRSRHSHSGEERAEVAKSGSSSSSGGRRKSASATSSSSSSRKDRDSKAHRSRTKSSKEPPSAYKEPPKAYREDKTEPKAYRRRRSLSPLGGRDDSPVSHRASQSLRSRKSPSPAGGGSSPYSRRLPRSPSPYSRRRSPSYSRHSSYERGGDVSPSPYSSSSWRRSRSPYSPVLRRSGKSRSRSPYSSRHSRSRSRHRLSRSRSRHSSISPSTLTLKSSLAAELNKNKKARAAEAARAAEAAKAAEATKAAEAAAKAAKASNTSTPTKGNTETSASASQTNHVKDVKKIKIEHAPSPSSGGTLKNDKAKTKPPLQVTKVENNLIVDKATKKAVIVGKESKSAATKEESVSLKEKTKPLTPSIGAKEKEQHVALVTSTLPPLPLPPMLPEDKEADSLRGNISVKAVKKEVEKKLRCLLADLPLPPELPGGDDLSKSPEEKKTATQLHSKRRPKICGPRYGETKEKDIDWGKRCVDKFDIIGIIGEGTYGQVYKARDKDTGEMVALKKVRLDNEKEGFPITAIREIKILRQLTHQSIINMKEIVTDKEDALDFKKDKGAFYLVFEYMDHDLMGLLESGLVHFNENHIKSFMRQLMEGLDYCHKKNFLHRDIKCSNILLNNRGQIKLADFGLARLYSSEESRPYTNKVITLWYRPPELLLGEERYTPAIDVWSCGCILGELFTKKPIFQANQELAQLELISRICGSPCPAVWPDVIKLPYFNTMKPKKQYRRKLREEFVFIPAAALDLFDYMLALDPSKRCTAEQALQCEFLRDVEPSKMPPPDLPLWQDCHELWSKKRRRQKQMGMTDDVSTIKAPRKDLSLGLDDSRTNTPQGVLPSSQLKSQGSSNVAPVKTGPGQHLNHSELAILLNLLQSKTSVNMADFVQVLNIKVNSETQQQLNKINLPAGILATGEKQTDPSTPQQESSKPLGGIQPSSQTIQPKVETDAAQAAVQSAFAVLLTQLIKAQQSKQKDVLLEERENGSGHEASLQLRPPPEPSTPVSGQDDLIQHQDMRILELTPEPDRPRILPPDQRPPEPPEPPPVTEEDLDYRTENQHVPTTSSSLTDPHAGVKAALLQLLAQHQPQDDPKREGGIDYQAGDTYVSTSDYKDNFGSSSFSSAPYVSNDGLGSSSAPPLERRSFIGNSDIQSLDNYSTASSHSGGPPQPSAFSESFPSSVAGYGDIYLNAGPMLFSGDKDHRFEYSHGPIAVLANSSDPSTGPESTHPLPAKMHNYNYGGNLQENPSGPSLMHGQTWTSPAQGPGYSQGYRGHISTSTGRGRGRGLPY

[6] = molecular target: Tyrosine-protein kinase Lck (Homo sapiens, UniProt P06239); experiment: Selectivity interaction (ProQinase) EUB0000171b LCK
Sequence of Tyrosine-protein kinase Lck (P06239 2-509 limits assumed): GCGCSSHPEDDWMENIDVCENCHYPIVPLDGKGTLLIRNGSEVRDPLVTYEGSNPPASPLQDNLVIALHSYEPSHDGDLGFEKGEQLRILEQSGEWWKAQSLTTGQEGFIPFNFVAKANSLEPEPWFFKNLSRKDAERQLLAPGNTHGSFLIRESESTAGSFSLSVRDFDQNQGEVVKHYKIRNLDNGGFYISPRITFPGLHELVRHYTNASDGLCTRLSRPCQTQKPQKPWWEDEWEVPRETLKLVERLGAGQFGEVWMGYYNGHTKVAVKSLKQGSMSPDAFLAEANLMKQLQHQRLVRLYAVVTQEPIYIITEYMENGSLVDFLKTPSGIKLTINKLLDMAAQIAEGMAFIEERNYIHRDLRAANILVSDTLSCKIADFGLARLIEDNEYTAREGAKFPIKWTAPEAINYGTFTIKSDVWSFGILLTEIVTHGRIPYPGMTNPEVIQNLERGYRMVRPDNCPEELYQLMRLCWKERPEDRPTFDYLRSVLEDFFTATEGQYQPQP

[7] = molecular target: T1, Cytoplasmic tyrosine-protein kinase BMX (Homo sapiens) (UniProt P51813); experiment: Selectivity interaction (KinaseProfiler screening (Millipore)) EUB0000601a BMX; conditions: at 3 µM
T1 sequence (whole entry): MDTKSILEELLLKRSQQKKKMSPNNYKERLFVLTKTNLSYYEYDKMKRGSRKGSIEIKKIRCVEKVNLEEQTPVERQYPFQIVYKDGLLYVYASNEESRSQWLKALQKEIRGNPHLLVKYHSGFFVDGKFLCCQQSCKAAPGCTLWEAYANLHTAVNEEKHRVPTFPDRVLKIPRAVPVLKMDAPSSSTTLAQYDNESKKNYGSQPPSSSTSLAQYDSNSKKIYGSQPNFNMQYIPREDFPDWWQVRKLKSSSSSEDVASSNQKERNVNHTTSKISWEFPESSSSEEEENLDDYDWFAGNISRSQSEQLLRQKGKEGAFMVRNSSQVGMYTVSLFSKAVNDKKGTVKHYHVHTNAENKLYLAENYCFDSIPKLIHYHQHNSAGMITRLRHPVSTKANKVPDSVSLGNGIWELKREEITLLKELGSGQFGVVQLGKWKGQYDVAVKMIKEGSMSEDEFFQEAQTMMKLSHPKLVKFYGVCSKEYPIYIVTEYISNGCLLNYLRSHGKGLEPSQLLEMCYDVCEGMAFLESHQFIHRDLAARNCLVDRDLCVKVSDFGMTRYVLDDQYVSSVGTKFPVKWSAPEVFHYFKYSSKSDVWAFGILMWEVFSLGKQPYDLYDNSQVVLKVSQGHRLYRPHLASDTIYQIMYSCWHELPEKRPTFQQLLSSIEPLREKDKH

[8] = molecular target: Cyclin-dependent kinase 16 (Homo sapiens) (UniProt Q00536); experiment: Selectivity interaction (Ambit KINOMEscan and KiNATiv profiling in Jurkat cells) EUB0000090b CDK16; format: cell-based; conditions: at 1 µM
[9] = molecular target: Atypical kinase COQ8A, mitochondrial (Homo sapiens, UniProt Q8NI60); experiment: Selectivity interaction (KinomeScan (DiscoverX)) EUB0000045b ADCK3
Sequence of Atypical kinase COQ8A, mitochondrial (Q8NI60 163-647 limits assumed): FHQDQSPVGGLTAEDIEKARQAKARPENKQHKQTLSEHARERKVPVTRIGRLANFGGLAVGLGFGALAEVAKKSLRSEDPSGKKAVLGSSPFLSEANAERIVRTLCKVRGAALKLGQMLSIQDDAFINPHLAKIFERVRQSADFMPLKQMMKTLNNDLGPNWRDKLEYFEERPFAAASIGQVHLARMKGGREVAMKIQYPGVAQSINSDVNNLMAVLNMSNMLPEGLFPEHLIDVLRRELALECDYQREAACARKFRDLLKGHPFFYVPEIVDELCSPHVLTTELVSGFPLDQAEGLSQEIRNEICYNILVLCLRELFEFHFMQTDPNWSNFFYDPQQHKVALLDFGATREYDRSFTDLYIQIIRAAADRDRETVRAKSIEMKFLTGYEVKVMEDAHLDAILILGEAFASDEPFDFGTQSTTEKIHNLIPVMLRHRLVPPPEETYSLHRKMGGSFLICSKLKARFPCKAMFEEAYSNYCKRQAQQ

[10] = molecular target: RAC-beta serine/threonine-protein kinase (Homo sapiens) (UniProt P31751); experiment: Selectivity interaction (KinomeScan (DiscoverX)) EUB0000045b AKT2
Sequence of RAC-beta serine/threonine-protein kinase (Homo sapiens) (P31751 whole entry): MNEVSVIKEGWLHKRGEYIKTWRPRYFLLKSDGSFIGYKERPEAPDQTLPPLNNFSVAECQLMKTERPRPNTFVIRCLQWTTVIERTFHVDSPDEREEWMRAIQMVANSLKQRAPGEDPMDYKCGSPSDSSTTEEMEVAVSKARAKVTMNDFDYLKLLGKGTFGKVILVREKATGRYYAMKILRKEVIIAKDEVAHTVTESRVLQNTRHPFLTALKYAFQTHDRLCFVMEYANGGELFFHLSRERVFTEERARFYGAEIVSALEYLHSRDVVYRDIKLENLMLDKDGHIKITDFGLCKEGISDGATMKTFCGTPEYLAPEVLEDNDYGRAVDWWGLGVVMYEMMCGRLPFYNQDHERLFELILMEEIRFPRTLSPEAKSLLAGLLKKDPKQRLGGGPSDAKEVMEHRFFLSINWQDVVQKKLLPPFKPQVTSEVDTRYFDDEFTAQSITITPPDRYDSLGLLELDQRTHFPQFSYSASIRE

[11] = molecular target: Wee1-like protein kinase 2 (Homo sapiens) (UniProt P0C1S8); experiment: Selectivity interaction (KinomeScan (DiscoverX)) EUB0000045b WEE2
Sequence of Wee1-like protein kinase 2 (Homo sapiens) (P0C1S8 whole entry, looked up): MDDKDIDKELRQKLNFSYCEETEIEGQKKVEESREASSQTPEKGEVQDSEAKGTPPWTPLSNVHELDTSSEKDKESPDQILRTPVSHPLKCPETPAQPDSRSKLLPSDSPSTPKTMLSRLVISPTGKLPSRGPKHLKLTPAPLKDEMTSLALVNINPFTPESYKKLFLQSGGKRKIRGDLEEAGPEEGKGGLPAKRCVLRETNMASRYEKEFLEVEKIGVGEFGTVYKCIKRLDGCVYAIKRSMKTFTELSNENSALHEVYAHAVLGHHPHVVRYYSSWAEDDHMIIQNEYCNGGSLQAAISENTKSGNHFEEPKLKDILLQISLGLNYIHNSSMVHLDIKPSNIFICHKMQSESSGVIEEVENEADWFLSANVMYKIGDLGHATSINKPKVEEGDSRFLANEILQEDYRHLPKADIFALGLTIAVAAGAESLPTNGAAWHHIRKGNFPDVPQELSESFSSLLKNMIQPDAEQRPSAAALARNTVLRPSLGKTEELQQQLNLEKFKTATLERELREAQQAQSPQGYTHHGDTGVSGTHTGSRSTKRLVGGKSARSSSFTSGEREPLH

[12] = molecular target: MAP kinase-interacting serine/threonine-protein kinase 1 (Homo sapiens) (UniProt Q9BUB5); experiment: Selectivity interaction (KinomeScan (DiscoverX)) EUB0000229b MKNK1; conditions: at 10 µM
[13] = molecular target: Calcium/calmodulin-dependent protein kinase type 1D (Homo sapiens) (UniProt Q8IU85); experiment: Selectivity interaction (KinomeScan (DiscoverX)) EUB0000092b CAMK1D; conditions: at 10 µM
Sequence of Calcium/calmodulin-dependent protein kinase type 1D (Homo sapiens) (Q8IU85 whole entry, looked up): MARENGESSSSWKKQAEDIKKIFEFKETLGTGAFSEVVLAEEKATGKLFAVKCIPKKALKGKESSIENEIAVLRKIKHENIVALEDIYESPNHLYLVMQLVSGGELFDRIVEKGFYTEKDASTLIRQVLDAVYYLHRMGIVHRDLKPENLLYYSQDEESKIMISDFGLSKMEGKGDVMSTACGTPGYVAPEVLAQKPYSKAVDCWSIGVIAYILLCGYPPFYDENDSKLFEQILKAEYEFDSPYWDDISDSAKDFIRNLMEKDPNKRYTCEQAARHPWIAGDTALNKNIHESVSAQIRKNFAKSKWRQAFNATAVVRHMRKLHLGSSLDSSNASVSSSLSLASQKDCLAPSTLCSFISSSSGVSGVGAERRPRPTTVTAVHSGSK

[14] = molecular target: Serine/threonine-protein kinase/endoribonuclease IRE1 (Homo sapiens) (UniProt O75460); experiment: Selectivity interaction (KinomeScan (DiscoverX)) EUB0000618a ERN1; conditions: at 10 µM
[15] = molecular target: T2, Tyrosine-protein kinase Mer (Homo sapiens) (UniProt Q12866); experiment: Selectivity interaction (KinomeScan (DiscoverX)) EUB0001619a MERTK; conditions: at 1 µM
T2 sequence (whole entry): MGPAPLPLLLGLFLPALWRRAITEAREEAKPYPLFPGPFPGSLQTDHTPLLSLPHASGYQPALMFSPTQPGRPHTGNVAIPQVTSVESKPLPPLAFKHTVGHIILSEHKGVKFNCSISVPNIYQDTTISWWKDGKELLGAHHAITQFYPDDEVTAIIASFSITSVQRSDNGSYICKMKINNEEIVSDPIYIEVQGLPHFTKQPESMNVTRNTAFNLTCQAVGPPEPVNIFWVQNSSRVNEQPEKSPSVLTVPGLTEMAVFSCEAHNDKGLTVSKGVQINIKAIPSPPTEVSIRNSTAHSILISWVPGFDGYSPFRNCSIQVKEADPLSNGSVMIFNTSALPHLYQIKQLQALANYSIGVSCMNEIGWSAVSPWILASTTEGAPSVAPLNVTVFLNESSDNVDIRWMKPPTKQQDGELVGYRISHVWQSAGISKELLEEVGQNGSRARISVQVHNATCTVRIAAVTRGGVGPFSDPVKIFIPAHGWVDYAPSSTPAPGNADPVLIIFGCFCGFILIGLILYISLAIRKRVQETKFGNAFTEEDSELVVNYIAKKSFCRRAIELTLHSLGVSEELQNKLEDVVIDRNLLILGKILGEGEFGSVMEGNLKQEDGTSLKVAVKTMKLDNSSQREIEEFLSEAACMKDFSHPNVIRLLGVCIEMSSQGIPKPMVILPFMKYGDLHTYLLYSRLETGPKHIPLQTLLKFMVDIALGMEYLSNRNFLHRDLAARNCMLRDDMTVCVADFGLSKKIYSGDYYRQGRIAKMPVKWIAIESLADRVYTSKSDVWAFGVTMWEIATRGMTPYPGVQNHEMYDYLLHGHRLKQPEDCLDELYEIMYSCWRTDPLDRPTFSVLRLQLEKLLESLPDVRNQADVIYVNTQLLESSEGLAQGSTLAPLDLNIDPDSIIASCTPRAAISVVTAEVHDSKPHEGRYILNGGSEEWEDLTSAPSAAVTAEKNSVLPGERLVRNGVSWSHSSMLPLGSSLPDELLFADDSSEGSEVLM

[16] = molecular target: Tyrosine-protein kinase JAK2 (Homo sapiens, UniProt O60674); experiment: Selectivity interaction (KinomeScan (DiscoverX)) EUB0001619a JAK2; conditions: at 1 µM

Structure (SMILES): CNC(=O)Nc1ccc(-c2nc(N3CC4CCC(C3)O4)c3cnn(C4CCC5(CC4)OCCO5)c3n2)cc1
- % of control [1]: 88%
- % of control [2]: 100%

- % of inhibition [3]: -3.7%
- % of inhibition [4]: -7.6%
- % of inhibition ([5]; at 0.01 µM): 3.8%
- % of inhibition ([5]; at 0.04 µM): -10.7%
- % of inhibition ([5]; at 0.2 µM): -1.5%
- % of inhibition ([5]; at 1 µM): -2.6%
- % of inhibition ([5]; at 5 µM): 5.1%
Structure (SMILES): CC[C@@H]1[C@H](F)C(=O)N[C@@H]1COc1nccc2cc(C(N)=O)c(OC)cc12 [ZIMLOVISERTIB]

- % of control ([6]; at 1 µM): 85%
- % of control ([6]; at 5 µM): 89%
Structure (SMILES): C=CC(=O)Nc1cccc(C(=O)Nc2ccc(Nc3cc(-c4[nH]c(SC)nc4C)ccn3)cc2)c1

- % of inhibition [7]: 71%
Structure (SMILES): CCc1cc(Nc2nccc(-c3c(-c4ccc(OC)c(C(=O)Nc5c(F)cccc5F)c4)nc4ccccn34)n2)c(OC)cc1N1CCC(N2CCN(S(C)(=O)=O)CC2)CC1

Structure (SMILES): CN(C)C/C=C/C(=O)Nc1ccc(C(=O)N2CCCC(Nc3ncc(Cl)c(-c4c[nH]c5ccccc45)n3)C2)cc1 (centres undefined)
- % of control [8]: 68%

Structure (SMILES): C=CC(=O)Nc1cc(-n2c(=O)ccc3cnc4ccc(-c5ccc(NS(C)(=O)=O)cc5)cc4c32)ccc1C
- % of control ([9]; at 1 µM): 100%
- % of control ([9]; at 10 µM): 82%
- % of control ([10]; at 1 µM): 100%
- % of control ([10]; at 10 µM): 100%
- % of control ([11]; at 1 µM): 66%
- % of control ([11]; at 10 µM): 100%

Structure (SMILES): COc1cc(N(C)c2ccnc3ccc(C(F)(F)F)cc23)cc(OC)c1OC
- % binding [12]: 89%

Structure (SMILES): CCC(=O)N1CCN(c2ccc(-n3c(=O)ccc4cnc5ccc(-c6cnc7ccccc7c6)cc5c43)cc2C(F)(F)F)CC1
- % of control [13]: 88%

Structure (SMILES): O[C@H]1CC[C@H](Nc2ncc3nc(Nc4c(F)cc(F)cc4F)n([C@H]4CCOC4)c3n2)CC1
- % of control [14]: 46%

Structure (SMILES): N#Cc1cccc(-c2c[nH]c3ncnc(N4CCOCC4)c23)c1
- % of control [15]: 100%
- % of control [16]: 71%
